Measurements taken from patent publication US20220364989A1, “METHOD FOR MEASURING PHOTOTOXICITY OR PHOTOALLERGY AND REAGENT FOR USE THEREIN” (FUJIFILM Corporation, priority 2018, published 2022).

Columns and labels:
[1] = NAC depletion under and without ultraviolet irradiation, HPLC with UV detection (281 nm)
[2] = NAL depletion under and without ultraviolet irradiation, HPLC with UV detection (281 nm)
[3] = Average score of NAC and NAL depletion and phototoxicity or photoallergy determination, UV detection
[4] = Average score of NAC and NAL depletion and phototoxicity or photoallergy determination, fluorescence detection
[5] = NAC depletion under and without ultraviolet irradiation, HPLC with fluorescence detection (284 nm excitation, 333 nm fluorescence)
[6] = NAL depletion under and without ultraviolet irradiation, HPLC with fluorescence detection (284 nm excitation, 333 nm fluorescence)
[7] = photoallergic compound concentration 0.05 mg/mL
[8] = photoallergic compound concentration 0.2 mg/mL
[9] = photoallergic compound concentration 0.5 mg/mL

NS(=O)(=O)c1cc2c(cc1Cl)NCNS2(=O)=O [2-4]
1.4%: Difference in depletion (under light irradiation - without light irradiation) NAL (%) [2, 8] | NAL Depletion (%) under light irradiation [2, 8]
5.6%: Difference in depletion (under light irradiation - without light irradiation) NAL (%) [6, 9] | NAL Depletion (%) under light irradiation [6, 9]
44.5%: Difference in depletion (under light irradiation - without light irradiation) Average score (%) [3, 9] | Average score (%) under light irradiation [3, 9]
12.3%: Difference in depletion (under light irradiation - without light irradiation) Average score (%) [4, 7] | Average score (%) under light irradiation [4, 7]
60.2%: Difference in depletion (under light irradiation - without light irradiation) NAC (%) [5, 8] | NAC Depletion (%) under light irradiation [5, 8]
45.8%: Difference in depletion (under light irradiation - without light irradiation) Average score (%) [4, 9] | Average score (%) under light irradiation [4, 9]
2.6%: Difference in depletion (under light irradiation - without light irradiation) NAL (%) [6, 7] | NAL Depletion (%) under light irradiation [6, 7]
0.3%: Difference in depletion (under light irradiation - without light irradiation) NAL (%) [2, 7] | NAL Depletion (%) under light irradiation [2, 7]
4.0%: Difference in depletion (under light irradiation - without light irradiation) NAL (%) [6, 8] | NAL Depletion (%) under light irradiation [6, 8]
0.0%: NAC Depletion (%) without light irradiation [1, 7] | NAC Depletion (%) without light irradiation [1, 8] | NAC Depletion (%) without light irradiation [1, 9] | NAL Depletion (%) without light irradiation [2, 7] | NAL Depletion (%) without light irradiation [2, 8] | NAL Depletion (%) without light irradiation [2, 9] | Average score (%) without light irradiation [3, 7] | Average score (%) without light irradiation [3, 8] | Average score (%) without light irradiation [3, 9] | Average score (%) without light irradiation [4, 7] | Average score (%) without light irradiation [4, 8] | Average score (%) without light irradiation [4, 9] | NAC Depletion (%) without light irradiation [5, 7] | NAC Depletion (%) without light irradiation [5, 8] | NAC Depletion (%) without light irradiation [5, 9] | NAL Depletion (%) without light irradiation [6, 7] | NAL Depletion (%) without light irradiation [6, 8] | NAL Depletion (%) without light irradiation [6, 9]
85.9%: Difference in depletion (under light irradiation - without light irradiation) NAC (%) [5, 9] | NAC Depletion (%) under light irradiation [5, 9]
84.5%: Difference in depletion (under light irradiation - without light irradiation) NAC (%) [1, 9] | NAC Depletion (%) under light irradiation [1, 9]
60.1%: Difference in depletion (under light irradiation - without light irradiation) NAC (%) [1, 8] | NAC Depletion (%) under light irradiation [1, 8]
30.8%: Difference in depletion (under light irradiation - without light irradiation) Average score (%) [3, 8] | Average score (%) under light irradiation [3, 8]
20.9%: Difference in depletion (under light irradiation - without light irradiation) NAC (%) [1, 7] | NAC Depletion (%) under light irradiation [1, 7]
4.4%: Difference in depletion (under light irradiation - without light irradiation) NAL (%) [2, 9] | NAL Depletion (%) under light irradiation [2, 9]
21.9%: Difference in depletion (under light irradiation - without light irradiation) NAC (%) [5, 7] | NAC Depletion (%) under light irradiation [5, 7]
32.1%: Difference in depletion (under light irradiation - without light irradiation) Average score (%) [4, 8] | Average score (%) under light irradiation [4, 8]

Nc1ccc(S(N)(=O)=O)cc1 [3-4, Sulfanilamide]
10.2%: Difference in depletion (under light irradiation - without light irradiation) Average score (%) [3, 7] | Average score (%) under light irradiation [3, 7]
49.9%: Difference in depletion (under light irradiation - without light irradiation) NAC (%) [5, 8] | NAC Depletion (%) under light irradiation [5, 8]
51.3%: Difference in depletion (under light irradiation - without light irradiation) NAC (%) [1, 8] | NAC Depletion (%) under light irradiation [1, 8]
11.8%: Difference in depletion (under light irradiation - without light irradiation) Average score (%) [4, 7] | Average score (%) under light irradiation [4, 7]
1.8%: Difference in depletion (under light irradiation - without light irradiation) NAL (%) [6, 8] | NAL Depletion (%) under light irradiation [6, 8]
0.0%: NAC Depletion (%) without light irradiation [1, 7] | NAC Depletion (%) without light irradiation [1, 8] | NAC Depletion (%) without light irradiation [1, 9] | Difference in depletion (under light irradiation - without light irradiation) NAL (%) [2, 7] | Difference in depletion (under light irradiation - without light irradiation) NAL (%) [2, 9] | NAL Depletion (%) under light irradiation [2, 7] | NAL Depletion (%) under light irradiation [2, 9] | NAL Depletion (%) without light irradiation [2, 7] | NAL Depletion (%) without light irradiation [2, 8] | NAL Depletion (%) without light irradiation [2, 9] | Average score (%) without light irradiation [3, 7] | Average score (%) without light irradiation [3, 8] | Average score (%) without light irradiation [3, 9] | Average score (%) without light irradiation [4, 7] | Average score (%) without light irradiation [4, 8] | Average score (%) without light irradiation [4, 9] | NAC Depletion (%) without light irradiation [5, 7] | NAC Depletion (%) without light irradiation [5, 8] | NAC Depletion (%) without light irradiation [5, 9] | NAL Depletion (%) without light irradiation [6, 7] | NAL Depletion (%) without light irradiation [6, 8] | NAL Depletion (%) without light irradiation [6, 9]
3.1%: Difference in depletion (under light irradiation - without light irradiation) NAL (%) [6, 9] | NAL Depletion (%) under light irradiation [6, 9]
40.6%: Difference in depletion (under light irradiation - without light irradiation) Average score (%) [4, 9] | Average score (%) under light irradiation [4, 9]
79.4%: Difference in depletion (under light irradiation - without light irradiation) NAC (%) [1, 9] | NAC Depletion (%) under light irradiation [1, 9]
2.4%: Difference in depletion (under light irradiation - without light irradiation) NAL (%) [6, 7] | NAL Depletion (%) under light irradiation [6, 7]
78.2%: Difference in depletion (under light irradiation - without light irradiation) NAC (%) [5, 9] | NAC Depletion (%) under light irradiation [5, 9]
0.3%: Difference in depletion (under light irradiation - without light irradiation) NAL (%) [2, 8] | NAL Depletion (%) under light irradiation [2, 8]
39.7%: Difference in depletion (under light irradiation - without light irradiation) Average score (%) [3, 9] | Average score (%) under light irradiation [3, 9]
